The text below walks through data of patent US12479974B2, “Composition and method for microbial control for use with polymers” (MICROBAN PRODUCTS COMPANY, priority 2022, dated 2025).

Test [1] has as its system Staphylococcus aureus (gram-positive bacteria). The test can be described thus: Antimicrobial efficacy of polymer samples, ISO22196 test method. The settings on record: GBA alone at more than 4500 ppm in TPU, Table 3 (S. aureus).
The test system of test [2] is Escherichia coli (gram-negative bacteria). The test is described as above.
In the next test the test system is Staphylococcus aureus. The test can be described thus: Minimum inhibitory concentration (MIC). It counts as cell-based. As to conditions: against Staphylococcus aureus.
The test system of another test is Escherichia coli. The test can be described thus: Minimum inhibitory concentration (MIC). The test is classed as cell-based. As to conditions: against Escherichia coli.

SMILES strings stand for the structures. In brackets after ≈: the same amount, converted by molar mass.

Turning to `O=C(O)c1ccccc1` [GBA, benzoic acid], the antimicrobial efficacy result in test [1] is given as “did not exhibit antimicrobial efficacy”. Also, the “efficacy against E. coli” value in test [2] (2500 ppm GBA in TPU) is given as “no efficacy”. Further, in test [2] (4500 ppm GBA alone in TPU, E. coli), the log reduction result was “less than 1”. Also, the “log reduction (consistent antimicrobial efficacy)” value in test [2] (5250 ppm level in TPU, E. coli) was > 1.
In the case of `OCCCc1ccccc1` [3-phenylpropanol], the MIC (commonly the lowest concentration found to suppress growth) in the test with Staphylococcus aureus was 4000 µg/mL (≈ 29.4 mM); in the test on Escherichia coli, 3000 to 4000 µg/mL (≈ 22 to 29.4 mM).
